Assay results as given in patent US7262173B2, “Chemosensitizing with liposomes containing oligonucleotides” (Georgetown University, priority 1997, dated 2007).

Tests used:
Raf-1 [1] = experiment: Raf-1 expression in SQ-20B tumor xenografts after i.v. or intratumoral ODN; format: in vivo, human; conditions: intravenous treatment; compared with untreated controls
Description: FIG. 7: Effects of intravenous administration of LE-ATG-AS raf ODN (SEQ ID NO:1) our Raf-1 expression in normal and tumor tissues. Raf-1 expression was examined in liver, kidneys and SQ-20B tumor xenograft of Balb/c nu/nu mice after i.v. injections of 6 mg/kg daily dose of LE-ATG-AS raf ODN (SEQ ID NO:1) (AS) or LE-ATG-S raf ODN (SEQ ID NO:3) (S) for five consecutive days. Control mice (C) received normal saline. Representative data showing Raf-1 expression in lysates normalized for protein content by immunoprecipitation and immunoblotting (top). Quantification data are shown as mean±s.d. from three mice (bottom).
FIG. 8: Inhibition of Raf-1 protein expression in SQ-20B tumor xenografts by intratumoral administration of LE-ATG-AS raf ODN (SEQ ID NO:1): Each animal received intratumoral injections of LE-ATG-AS raf ODN (SEQ ID NO:1) (AS) on the right flank and LE-ATG-S raf ODN (SEQ ID NO:3) (S) on the left flank at a dose of 4 mg/kg daily for seven days as explained in the experimental procedures. […] Quantification data shown are mean±s.d., from three representative mice. […]
For in vivo expression studies, tumor tissue and organs were homogenized in the cell lysis buffer using Polytron homogenizer (Westbury, N.Y., USA). Raf-1 expression was analyzed in tissue homogenates by immunoprecipitation and immunoblotting as described above.

Raf-1 [2] = experiment: Raf-1 immunoprecipitation and immunoblotting in SQ-20B cells (5132, LE-5132, LE-10353); format: cell-based, human
Description: FIG. 9: Antisense sequence-specific inhibition of Raf-1 expression in SQ-20B cells. (A) Logarithmically growing SQ-20B cells were treated with indicated ODN concentrations of LE-5132 (SEQ ID NO:4) (lanes 3, 5 and 10), 5132 (SEQ ID NO:4) (lanes 4 and 6), or LE-10353 (SEQ ID NO:5) (lane 9) as described in Materials and Methods. Control cells were either left untreated (lanes 1 and 7) or treated with 1 uM blank liposomes (BL) (lanes 2 and 8). Whole cell lysates were normalized for total protein content and immunoprecipitated with agarose-conjugated polyclonal anti-Raf-1 antibody. Immune complexes were resolved by 7.5% SDS-PAGE and immunoblotted with polyclonal anti-Raf-1 antibody. (B) Data from three independent experiments were quantified and expressed relative to the level of Raf-1 in untreated cells.
On day two, cells were rinsed with fresh 30% FBS, followed by a second course of the treatment schedule as on day one for an additional 24 hours. This procedure yielded a minimal exposure of cells of LE-5132 (SEQ ID NO:4) 12 hours). […] The lysates were clarified by centrifugation at 16,000 g for 20 minutes, and the protein concentrations were determined (Pierce, Rockford, Ill.). […] The Raf-1 protein level was quantified using the computer software program Image-Quant (Molecular Dynamics, Sunnyvale, Calif.).

SQ-20B tumor xenografts = experiment: SQ-20B tumor xenograft growth (LE-5132, 5132, ionizing radiation); format: in vivo, Balb/c nu/nu mice; conditions: 10 mg/kg i.v. daily 7 days then three doses on alternate days; day 35
Description: FIG. 13: Effect of LE-5132 (SEQ ID NO:4) on […] tumor growth. SQ-20B rumor cells (2×10^6) were injected a.c. into the left flank region of each male Balb/c nu/nu mouse, 10–12 weeks old. Tumor xenografts were grown to a mean tumor volume of 94±6.4 mm^3, and the animals were randomized into two treatment groups. Day 0 represents the first day of treatment. […] The data shown are mean±SE of 5–7 animals per group.
FIG. 15: Effect of LE-5132 (SEQ ID NO:4) and ionizing radiation on SQ-20B rumor growth. (A) SQ-20B tumor xenografts were grown in male Balb/c nu/nu mice as described. Animals bearing a mean tumor volume of 72.0±4.3 mm^3 were randomized into five treatment groups. Day 0 represents the first day of treatment. […]
Logarithmically growing SQ-20B cells were injected s.c. (2×10^o cells) in the left flank region in male Balb/c nu/nu mice under mild anesthesia. […] Volumes for tumors were determined from caliper measurements of the three major axes (a, b, c) and calculated using abc/2, an approximation for the volume of an ellipse (πabc/6).
For each experiment, tumor-bearing mice were randomly divided into different treatment group, with 5–7 animals per group. […] Using TLD dosimetry, the average dose rate to the center of the tumor and to the mouse body were determined beforehand using the experimental irradiation conditions and a custom-made, tissue-equivalent, mouse phantom. […]

[3] = mouse, in vivo, iv, 30 mg/kg
Description: FIG. 11: The plasma concentration-time profile of LE-5132 (SEQ ID NO:4) and 5132 (SEQ ID NO:4); 30 mg/kg LE-5132 (SEQ ID NO:4) or 5132 (SEQ ID NO:4) was administered i.v. in Balb/c nu/nu mice. Blood samples were collected from the retroorbital sinus at indicated times after injection, and ODN in plasma samples was extracted and analyzed by denaturing gel electrophoresis as described. […] Quantification data were calculated based on comparison with known concentrations of the standard samples and then normalized against sample dilution factors used for loading.
Male Balb/c nu/nu mice (National Cancer Institute, Frederick, Md.) were maintained in the Division of Comparative Medicine, Georgetown University, according to accredited procedures, and fed purina chow and water ad libitum. Mice were injected i.v. via the tail vein with 30 mg/kg of LE-5132 (SEQ ID NO:4) or 5132 (SEQ ID NO:4) formulated in PBS. At 5, 15, and 30 minutes and 1, 2, 4, 8, 24, and 48 hours after injection, animals were bled, under anesthesia, from the retroorbital sinus into heparinized tubes and killed by cervical dislocation. The blood was centrifuged immediately at 300 g for 10 minutes at 4° C. to separate the plasma. The liver, spleen, kidney, heart, and lungs were rapidly excised and rinsed in ice-cold normal saline. The plasma and organs were stored at −70° C. until further analysis.
Antisense raf ODN concentrations in plasma and tissue samples were detected as we described earlier (Gokhale et al., 1997). Briefly, the ODN was isolated from plasma samples using the phenol-chloroform extraction method and from tissues using a DNA extraction kit (Stratagene, La Jolla, Calif.). The raf ODN concentration standards were prepared by adding known amounts of 5132 (SEQ ID NO:4) in blank plasma or blank tissue samples, followed by extraction as described earlier. The extracts were loaded onto 20% pblyacrylamide/8 M urea gels and electrophoresed in TBE buffer. The gels were electroblotted onto nylon membranes in 0.5×TBE buffer at 20 V for one hour, and the blots were probed with [^32P]-labeled sense raf ODN probe in Quickhyb buffer (Stratagene) at 30° C. overnight. A 10–50-fold excess of the probe was used to ensure saturation of all bands. The autoradiographs were scanned using a computer program (Image-Quant software), and the amounts of antisense raf ODN in the samples were calculated by comparison with standards.

Substance | effect on Raf-1 expression in tumor tissue (Raf-1 [1]) | effect on Raf-1 expression in cell culture (Raf-1 [2]) | mean tumor volume compared with day 0 (100%) (SQ-20B tumor xenografts) | AUCarea [3] [ng·h/mL] | CL (total body clearance) [3] [mL/min/kg] | Cmax (peak plasma concentration) [3] [ng/mL] | Vdarea (volume of distribution) [3] [L/kg] | initial distribution half-life [3] [h] | t1/2β (elimination half-life) [3] [h] | terminal half-life (t1/2β) [3] [h]
5′-GCAT-CAATGGAGCAC-3′ (sense GCATCAATGGAGCAC; listed as DNA, chemistry not fully specified) [ATG-S raf ODN] | no effect | – | – | – | – | – | – | – | – | –
5′-TCC-CGC-CTG-TGA-CAT-GCA-TT-3′ [compound 5132] | – | ineffective | 159.6%±10.0% | 6200 | 80.3 | 13570 | 29.96 | 0.36 | 4.30 | 4.3
